Converted amounts (≈) assume the structure as drawn.
How the values were obtained:
[1] = target: T1, UDP-3-O-acyl-N-acetylglucosamine deacetylase (Pseudomonas aeruginosa (strain ATCC 15692 / PAO1 / 1C / PRS 101 / LMG12228), UniProt P47205); assay: Inhibition of Pseudomonas aeruginosa LpxC using UDP-3-O-(R-hydroxydecanoyl)-N-acetylglucosamine incubated for 30 mins prior to substrate addition measured after 60 mins by mass spectrophotometry
T1 sequence (P47205 whole entry): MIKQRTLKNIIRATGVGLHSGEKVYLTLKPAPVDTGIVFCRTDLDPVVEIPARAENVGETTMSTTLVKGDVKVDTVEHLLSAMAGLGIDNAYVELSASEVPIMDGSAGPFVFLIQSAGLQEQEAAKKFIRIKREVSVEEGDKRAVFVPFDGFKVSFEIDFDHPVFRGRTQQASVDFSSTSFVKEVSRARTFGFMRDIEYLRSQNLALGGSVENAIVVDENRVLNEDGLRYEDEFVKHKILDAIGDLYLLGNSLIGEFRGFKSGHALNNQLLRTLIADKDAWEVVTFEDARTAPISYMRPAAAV

Pseudomonas aeruginosa [2] = assay: Antibacterial activity against Pseudomonas aeruginosa PAO1 after 16 to 20 hrs by broth microdilution method; assay type: functional
Staphylococcus aureus = assay: Antibacterial activity against Staphylococcus aureus ATCC 29213 after 16 to 20 hrs by broth microdilution method; assay type: functional
Pseudomonas aeruginosa [3] = assay: Antibacterial activity against Pseudomonas aeruginosa after 16 to 20 hrs by broth microdilution method; assay type: functional
Klebsiella pneumoniae = assay: Antibacterial activity against Klebsiella pneumoniae after 16 to 20 hrs by broth microdilution method; assay type: functional
Escherichia coli = assay: Antibacterial activity against Escherichia coli after 16 to 20 hrs by broth microdilution method; assay type: functional
Klebsiella aerogenes = assay: Antibacterial activity against Enterobacter aerogenes after 16 to 20 hrs by broth microdilution method; assay type: functional
Citrobacter freundii = assay: Antibacterial activity against Citrobacter freundii after 16 to 20 hrs by broth microdilution method; assay type: functional
Acinetobacter baumannii = assay: Antibacterial activity against Acinetobacter baumannii after 16 to 20 hrs by broth microdilution method; assay type: functional
[4] = Clearance in rat at 10 mg/kg, iv; assay type: ADME, organism-based; parameters: dose 10 mg/kg, route intravenous; details: in vivo
[5] = Volume of distribution at steady state in rat at 10 mg/kg, iv; assay type: ADME, organism-based; parameters: dose 10 mg/kg, route intravenous; details: in vivo, read-out: Vdss
[6] = AUC in rat at 10 mg/kg, iv; assay type: ADME, organism-based; parameters: dose 10 mg/kg, route intravenous; details: plasma
[7] = Half life in rat at 10 mg/kg, iv; assay type: ADME, organism-based; parameters: dose 10 mg/kg, route intravenous; details: in vivo
Pseudomonas aeruginosa [8] = assay: Antibacterial activity against Pseudomonas aeruginosa clinical isolates after 16 to 20 hrs by broth microdilution method; assay type: functional

| SMILES | IC50 [1] [nM] | MIC (Pseudomonas aeruginosa [2]) [µg/mL] | MIC (Staphylococcus aureus) [µg/mL] | also measured |
| --- | --- | --- | --- | --- |
| C[C@@](CCc1ccccc1)(C(=O)NO)S(C)(=O)=O | > 100 | 16 (≈ 59 µM) | > 64 | – |
| C[C@@](CCc1ccc(-c2ccc(C#N)cc2)cc1)(C(=O)NO)S(C)(=O)=O | 0.64 | 0.125 (≈ 0.336 µM) | > 64 | MIC90 (Pseudomonas aeruginosa [3]): 1 µg/mL (≈ 2.68 µM); MIC90 (Klebsiella pneumoniae): 2 µg/mL (≈ 5.37 µM); MIC90 (Escherichia coli): 0.5 µg/mL (≈ 1.34 µM); MIC90 (Klebsiella aerogenes): 1 µg/mL (≈ 2.68 µM); MIC90 (Citrobacter freundii): 2 µg/mL (≈ 5.37 µM); MIC90 (Acinetobacter baumannii): 16 µg/mL (≈ 43 µM); clearance [4]: 53 mL/min/kg; Vd [5]: 1.4 L/kg; AUC [6]: 3100 ng·h/mL; half-life [7]: 36 min |
| C[C@@](CCc1ccc(-c2cccc(-n3cccn3)c2)cc1)(C(=O)NO)S(C)(=O)=O | 22.1 | 32 (≈ 77.4 µM) | 64 (≈ 155 µM) | – |
| COc1ccc(CCC(C)(C(=O)NO)S(C)(=O)=O)cc1 (racemic) | > 100 | 16 (≈ 53.1 µM) | > 64 | – |
| C[C@@](CCc1ccc(-c2ccc(C(=O)CO)cc2)cc1)(C(=O)NO)S(C)(=O)=O | 1.85 | 0.5 (≈ 1.23 µM) | > 64 | MIC90 (Pseudomonas aeruginosa [3]): 1 µg/mL (≈ 2.47 µM); MIC90 (Klebsiella pneumoniae): 8 µg/mL (≈ 19.7 µM); MIC90 (Escherichia coli): 2 µg/mL (≈ 4.93 µM); MIC90 (Klebsiella aerogenes): 4 µg/mL (≈ 9.87 µM); MIC90 (Citrobacter freundii): 4 µg/mL (≈ 9.87 µM); MIC90 (Acinetobacter baumannii): > 64 µg/mL |
| C[C@@](CCc1ccc(-c2ccc(CN)cc2)cc1)(C(=O)NO)S(C)(=O)=O | 12.9 | 1 (≈ 2.66 µM) | > 64 | – |
| C[C@@](CCc1ccc(Sc2ccccc2)cc1)(C(=O)NO)S(C)(=O)=O | 30.4 | 4 (≈ 10.5 µM) | 64 (≈ 169 µM) | – |
| C[C@@](CCc1ccc(-c2ccc(O)cc2)cc1)(C(=O)O)S(C)(=O)=O | > 92.5 | > 64 | > 64 | clearance [4]: 15 mL/min/kg; Vd [5]: 0.4 L/kg; AUC [6]: 10900 ng·h/mL; half-life [7]: 42 min |
| C[C@@](CCc1ccc(-c2ccc(Cl)cc2)cc1)(C(=O)NO)S(C)(=O)=O | < 1.05 | 0.5 (≈ 1.31 µM) | 16 (≈ 41.9 µM) | – |
| O=C(NO)C1(CCc2ccc(-c3ccccc3)cc2)CCCS1(=O)=O (racemic) | > 92.5 | > 64 | 64 (≈ 178 µM) | – |
| C[C@@](CCc1ccc(-c2ccc(C(=O)O)cc2)cc1)(C(=O)NO)S(C)(=O)=O | 73.6 | 64 (≈ 163 µM) | > 64 | – |
| C[C@@](CCc1ccc(-c2ccccc2C(N)=O)cc1)(C(=O)NO)S(C)(=O)=O | > 100 | > 64 | > 64 | – |
| C[C@@](CCc1ccc(-c2ccc(OCCCC(=O)O)cc2)cc1)(C(=O)NO)S(C)(=O)=O | 21.2 | 8 (≈ 17.8 µM) | > 64 | – |
| CC(CCc1ccc(-c2ccccc2)cc1)(C(=O)NO)S(=O)(=O)c1ccccc1 (racemic) | > 67.9 | 64 (≈ 156 µM) | 32 (≈ 78.1 µM) | – |
| C[C@@](CCc1ccc(-c2cccc(C(N)=O)c2)cc1)(C(=O)NO)S(C)(=O)=O | 27.8 | 32 (≈ 82 µM) | > 64 | – |
| CCc1ccccc1-c1ccc(CC[C@](C)(C(=O)NO)S(C)(=O)=O)cc1 | 26.1 | 8 (≈ 21.3 µM) | 32 (≈ 85.2 µM) | – |
| C[C@@](CCc1ccc(-c2ccccc2F)cc1)(C(=O)NO)S(C)(=O)=O | 1.36 | 0.125 (≈ 0.342 µM) | 32 (≈ 87.6 µM) | – |
| CC(C)(O/N=C(\C(=O)N[C@@H]1C(=O)N2C(C(=O)[O-])=C(C[n+]3ccccc3)CS[C@H]12)c1csc(N)n1)C(=O)O [CEFTAZIDIME] | – | – | – | MIC50 (Pseudomonas aeruginosa [8]): 16 µg/mL (≈ 29.3 µM); MIC90 (Pseudomonas aeruginosa [8]): > 64 µg/mL |
| CC(CS(=O)(=O)c1ccc(-c2ccccc2)cc1)(C(=O)NO)S(C)(=O)=O (racemic) | 11.9 | 4 (≈ 10.1 µM) | > 64 | – |
| CC(CCc1ccc(-c2ccc(OCCCNC(=N)N)cc2)cc1)(C(=O)NO)S(C)(=O)=O (racemic) | 9.49 | 32 (≈ 69.2 µM) | 32 (≈ 69.2 µM) | – |
| CC(CCc1ccc(OCc2cc[n+]([O-])cc2)cc1)(C(=O)NO)S(C)(=O)=O (racemic) | 92.7 | > 64 | > 64 | – |

— ChEMBL document CHEMBL1955743, “Potent inhibitors of LpxC for the treatment of Gram-negative infections” (J Med Chem, 2012)
